Key:
[1] = Basal toxicity test, neutral red, alternative LD50 calculated from IC50; details: mouse, LD50, alternative LD50 calculated by formula from IC50 in NIH 3T3 cells
Method: (§1) A low therapeutic index of chemotherapy agents is due to affecting not only cancer formation but also normal cells.
(§2) 9,000 NIH 3T3 cells/well were placed into 96-well plates for 24 h and then exposed to the test compound over a range of eight concentration (1-1000 μg/ml) for 24 h. Upon that, the cells were incubated with the neutral red dye for 4 h and then OD was determined at 540 nm. […] The IC50 values were calculated using the program Graph Pad Prism® 4.0

[2] = test system: NIH 3T3 (normal mouse fibroblasts); experiment: as above; details: alternative LD50 calculated by formula from IC50 in NIH 3T3 cells, 24 h
Method: as §1, §2

[3] = test system: A7R5 (rat aorta smooth muscle) cells; experiment: Intracellular Ca2+ measurements, Fluo-4 NW Calcium Assay Kit, KCl-induced [Ca2+]i increase; format: cell-based; details: for IC50: Rattus norvegicus, A7R5, read-out: Ca^2+ A7R5, IC50; for Ca^2+ antagonist effect compared with Verapamil: relative to Verapamil; for Ca^2+ antagonist effect compared with Verapamil / Ca^2+ A7R5, IC50: A7R5 cells; for Ca^2+ A7R5, IC50: KCl (50 mM) induced [Ca2+]i increase, compounds 0.8 to 100 μM
Method: Changes in intracellular [Ca^2+] concentration were studied using A7R5 (rat aorta smooth muscle) cells and Fluo-4 NW Calcium Assay Kit (“Invitrogen”, Sweden) according to manufacturer's instructions.
Changes in intracellular [Ca^2+]i concentration were studied using Fluo-4 NW Calcium Assay Kit (“Invitrogen”, Sweden) accordingly to manufacturer's instructions. The A7R5 (rat aorta smooth muscle) cells were grown at 37° C. in a humidified atmosphere with 5% CO2/95% air in DMEM medium containing 2 mM glutamine and supplemented with 10% FBS. The cells were seeded into 96 well plate at 10,000 cells/well and incubated for 72 h. The cells were loaded with […] for 45 min. The Fura-4NW loaded cells were pre-incubated in the dark for 15 minutes with tested compounds at concentrations from 0.8 to 100 μM. Then A7R5 cells were pre-treated with 1.5 mM CaCl2 for 5 minutes and KCl (50 mM) was added to A7R5 cells to induce [Ca^2+]i increase. Amlodipine, the well-known calcium channel inhibitor was used as the positive control.

P-glycoprotein (P-gp) = P-glycoprotein (P-gp) (Homo sapiens, UniProt P08183); experiment: Measurement of P-glycoprotein activity: rhodamine 123 accumulation in MES-SA and MES-SA/Dx5 cells; details: for inhibition of MDR transport proteins (P-gp, MRP1, BCRP1), summary in words: summary of the P-gp, MRP1 and BCRP1 efflux assays; for MDR, EC50, P-gp: rhodamine 123 accumulation, doxorubicin resistant MES-SA/Dx5 cells
Method: (§3) Thieno[2,3-b]pyridines of the formula (I) were tested to reveal MDR-blocking activity.
About 50,000 cells/well of the human uterine sarcoma cell line MESSA and MES-SA/Dx5 were seeded into the 96-well plates and incubated for 24 h. The MDR modulators were incubated with the cells for 15 min. […] The EC50 values were calculated using the program Graph Pad Prism® 4.0.

MRP1 = MRP1 (Homo sapiens, UniProt P33527); experiment: cell-based; details: for MDR, EC50, MRP1: calcein AM assay, DOX resistant H69AR cells
Method: as §3
About 60,000 cells/well of the human lung carcinoma cell line H69 and H69AR were seeded into the 96-well plates and incubated for 24 h. The compounds were incubated with the cells for 15 min. […] The EC50 values was calculated using the program Graph Pad Prism® 4.0

BCRP1 = molecular target: T1, BCRP1 (Homo sapiens, UniProt Q9UNQ0); experiment: cell-based; details: for MDR, EC50, BCRP1: Hoechst 33342, mitoxantrone resistant MES-SA/MX2 cells
T1 sequence (Q9UNQ0 1-655): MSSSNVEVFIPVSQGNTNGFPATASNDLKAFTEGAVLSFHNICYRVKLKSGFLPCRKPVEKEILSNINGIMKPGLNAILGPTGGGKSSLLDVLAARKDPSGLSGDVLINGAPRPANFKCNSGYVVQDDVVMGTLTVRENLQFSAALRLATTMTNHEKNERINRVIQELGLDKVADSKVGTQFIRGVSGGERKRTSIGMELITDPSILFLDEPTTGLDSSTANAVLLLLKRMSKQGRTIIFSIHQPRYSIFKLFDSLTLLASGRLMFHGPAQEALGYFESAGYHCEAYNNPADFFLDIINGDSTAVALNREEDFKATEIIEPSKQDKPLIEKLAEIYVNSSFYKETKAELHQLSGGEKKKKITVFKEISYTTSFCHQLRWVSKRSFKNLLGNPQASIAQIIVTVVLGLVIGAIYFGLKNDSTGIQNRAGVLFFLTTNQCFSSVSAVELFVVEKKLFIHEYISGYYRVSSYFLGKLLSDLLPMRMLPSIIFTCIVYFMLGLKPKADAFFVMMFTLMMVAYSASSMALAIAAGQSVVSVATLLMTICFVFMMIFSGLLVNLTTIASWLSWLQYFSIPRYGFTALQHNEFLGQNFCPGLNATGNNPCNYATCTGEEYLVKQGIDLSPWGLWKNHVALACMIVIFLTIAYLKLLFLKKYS
Method: as §3
About 50,000 cells/well of the MESSA and MES-SA/MX2 were seeded into the 96-well plates and incubated for 24 h. The MDR modulators were incubated with the cells for 15 min. […] The EC50 values were calculated using the program Graph Pad Prism® 4.0

MRP1, sequence (P33527 whole entry): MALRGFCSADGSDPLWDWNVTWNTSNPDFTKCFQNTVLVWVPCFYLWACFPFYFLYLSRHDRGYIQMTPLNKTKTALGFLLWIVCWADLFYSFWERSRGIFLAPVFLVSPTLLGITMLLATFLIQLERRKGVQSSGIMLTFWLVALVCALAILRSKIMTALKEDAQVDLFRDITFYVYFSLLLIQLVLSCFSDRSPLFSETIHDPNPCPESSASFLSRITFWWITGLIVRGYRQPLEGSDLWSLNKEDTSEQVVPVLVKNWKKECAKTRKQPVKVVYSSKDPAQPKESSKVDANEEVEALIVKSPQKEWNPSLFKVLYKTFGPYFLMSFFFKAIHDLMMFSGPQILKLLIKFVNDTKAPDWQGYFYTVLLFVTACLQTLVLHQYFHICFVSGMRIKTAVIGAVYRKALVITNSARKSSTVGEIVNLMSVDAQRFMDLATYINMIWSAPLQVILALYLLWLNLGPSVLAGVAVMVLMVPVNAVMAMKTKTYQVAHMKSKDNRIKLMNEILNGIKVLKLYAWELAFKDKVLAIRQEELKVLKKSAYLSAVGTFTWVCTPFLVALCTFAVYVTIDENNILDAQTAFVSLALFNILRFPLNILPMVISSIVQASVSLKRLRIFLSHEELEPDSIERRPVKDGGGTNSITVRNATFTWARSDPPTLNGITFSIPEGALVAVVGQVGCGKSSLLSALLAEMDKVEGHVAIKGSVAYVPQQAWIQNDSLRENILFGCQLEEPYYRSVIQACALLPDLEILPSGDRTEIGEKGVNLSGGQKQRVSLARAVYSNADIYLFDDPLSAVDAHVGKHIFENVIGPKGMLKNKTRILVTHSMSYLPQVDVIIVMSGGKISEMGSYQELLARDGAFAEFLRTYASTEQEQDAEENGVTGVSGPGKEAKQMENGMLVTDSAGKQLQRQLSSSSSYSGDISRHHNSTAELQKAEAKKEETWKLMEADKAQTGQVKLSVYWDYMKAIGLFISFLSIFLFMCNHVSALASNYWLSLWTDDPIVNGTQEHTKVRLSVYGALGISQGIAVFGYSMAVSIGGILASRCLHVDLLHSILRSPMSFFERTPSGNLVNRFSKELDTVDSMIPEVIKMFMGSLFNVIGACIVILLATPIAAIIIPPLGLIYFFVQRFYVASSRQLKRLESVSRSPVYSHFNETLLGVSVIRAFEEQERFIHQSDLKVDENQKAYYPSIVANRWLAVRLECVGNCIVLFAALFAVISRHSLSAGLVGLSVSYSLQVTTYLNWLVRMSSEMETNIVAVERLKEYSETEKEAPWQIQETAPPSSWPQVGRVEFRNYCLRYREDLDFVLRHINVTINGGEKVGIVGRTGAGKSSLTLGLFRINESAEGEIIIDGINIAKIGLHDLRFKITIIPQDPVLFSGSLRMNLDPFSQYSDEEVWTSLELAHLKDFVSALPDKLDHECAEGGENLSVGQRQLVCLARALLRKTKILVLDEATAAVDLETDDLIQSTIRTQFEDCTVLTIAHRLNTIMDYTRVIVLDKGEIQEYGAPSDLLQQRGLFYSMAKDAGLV
P-glycoprotein (P-gp), sequence (P08183 whole entry): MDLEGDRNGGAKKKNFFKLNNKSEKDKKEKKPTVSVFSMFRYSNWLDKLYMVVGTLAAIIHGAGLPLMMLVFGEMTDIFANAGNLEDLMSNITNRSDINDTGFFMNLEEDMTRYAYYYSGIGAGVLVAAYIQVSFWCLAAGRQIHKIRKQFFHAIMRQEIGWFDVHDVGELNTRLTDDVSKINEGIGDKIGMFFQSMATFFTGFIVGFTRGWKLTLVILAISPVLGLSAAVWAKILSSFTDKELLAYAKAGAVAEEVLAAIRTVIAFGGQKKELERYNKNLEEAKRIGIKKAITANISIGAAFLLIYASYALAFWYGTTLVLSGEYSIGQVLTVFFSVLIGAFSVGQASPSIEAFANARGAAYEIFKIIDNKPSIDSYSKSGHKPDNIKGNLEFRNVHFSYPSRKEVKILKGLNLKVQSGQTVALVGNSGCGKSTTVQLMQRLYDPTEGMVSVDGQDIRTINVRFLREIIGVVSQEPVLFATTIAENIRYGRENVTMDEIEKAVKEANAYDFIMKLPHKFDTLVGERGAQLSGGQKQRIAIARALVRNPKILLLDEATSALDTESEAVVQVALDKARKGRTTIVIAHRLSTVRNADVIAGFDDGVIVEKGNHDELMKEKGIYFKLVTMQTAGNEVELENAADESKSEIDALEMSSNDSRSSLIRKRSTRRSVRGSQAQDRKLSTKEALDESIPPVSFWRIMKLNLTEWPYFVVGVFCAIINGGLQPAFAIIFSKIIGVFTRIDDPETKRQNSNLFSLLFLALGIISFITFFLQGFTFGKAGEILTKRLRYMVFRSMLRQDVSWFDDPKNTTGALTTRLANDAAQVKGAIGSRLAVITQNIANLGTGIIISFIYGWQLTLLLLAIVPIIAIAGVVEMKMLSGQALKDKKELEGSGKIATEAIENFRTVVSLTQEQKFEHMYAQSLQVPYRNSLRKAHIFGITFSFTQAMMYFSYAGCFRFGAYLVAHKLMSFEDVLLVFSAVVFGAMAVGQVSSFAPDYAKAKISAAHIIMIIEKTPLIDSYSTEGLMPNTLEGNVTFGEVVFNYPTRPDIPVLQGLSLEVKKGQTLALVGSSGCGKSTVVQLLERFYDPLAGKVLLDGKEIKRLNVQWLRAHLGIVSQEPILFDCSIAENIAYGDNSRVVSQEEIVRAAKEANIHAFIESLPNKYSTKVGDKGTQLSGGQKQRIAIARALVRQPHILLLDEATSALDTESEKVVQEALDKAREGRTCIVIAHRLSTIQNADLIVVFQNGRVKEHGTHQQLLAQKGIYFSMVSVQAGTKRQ

SMILES | LD50 at 24 h [1] | IC50 [3] | Ca^2+ antagonist effect compared with Verapamil [3] | other results
COC(=O)c1c(C)nc2sc(C(=O)c3ccc(OC)cc3)c(N)c2c1-c1ccc(OC)c(OC)c1 [Compound 6, 3-Amino-4-(3,4-dimethoxyphenyl)-2-(4-methoxybenzoyl)-6-methyl-thieno[2,3-b]-pyridine-5-carboxylic acid methyl ester] | > 2000 mg/kg | 6 ± 0.8 µM | more than ten times lower | LD50 [2]: 2808 mg/kg
COC(=O)c1c(C)nc2sc(C(=O)c3ccc(OC)cc3)c(N)c2c1-c1cc(OC)c(OC)c(OC)c1 [Compound 10, 3-Amino-2-(4-methoxybenzoyl)-6-methyl-4-(3,4,5-trimethoxyphenyl)thieno[2,3-b]pyridine-5-carboxylic acid methyl ester] | > 2000 mg/kg | 9 ± 0.7 µM | more than ten times lower | inhibition of MDR transport proteins (P-gp, MRP1, BCRP1), summary in words (P-glycoprotein (P-gp)): inhibit three MDR transport proteins: P-gp, MRP1 and BCRP1
COC(=O)c1c(C)nc2sc(C(=O)c3ccc(OC)cc3OC)c(N)c2c1-c1cc(OC)c(OC)c(OC)c1 [Compound 11, 3-Amino-2-(2,4-dimethoxybenzoyl)-6-methyl-4-(3,4,5-trimethoxyphenyl)thieno[2,3-b]pyridine-5-carboxylic acid methyl ester] | > 2000 mg/kg | 18 ± 1 µM | more than ten times lower | inhibition of MDR transport proteins (P-gp, MRP1, BCRP1), summary in words (P-glycoprotein (P-gp)): inhibit three MDR transport proteins: P-gp, MRP1 and BCRP1
CCOC(=O)c1c(C)nc2sc(C(=O)c3ccc(OC)cc3)c(N)c2c1-c1cc(OC)c(OC)c(OC)c1 [Compound 24, 3-Amino-2-(4-methoxybenzoyl)-6-methyl-4-(3,4,5-trimethoxyphenyl)thieno[2,3-b]-pyridine-5-carboxylic acid ethyl ester] | > 2000 mg/kg | 19 ± 3 µM | more than ten times lower | LD50 [2]: >2000 mg/kg
CCOC(=O)c1c(C)nc2sc(C(=O)c3ccc(OC)cc3OC)c(N)c2c1-c1cc(OC)c(OC)c(OC)c1 [Compound 25, 3-Amino-2-(2,4-dimethoxybenzoyl)-6-methyl-4-(3,4,5-trimethoxyphenyl)-thieno[2,3-b]pyridine-5-carboxylic acid ethyl ester] | > 2000 mg/kg | 46 ± 1.4 µM | more than ten times lower | LD50 [2]: >2000 mg/kg
CCOC(=O)c1c(C)nc2sc(C(=O)c3ccc(OC)cc3)c(N)c2c1-c1ccc(N(C)C)cc1 [Compound 29, 3-Amino-4-(4-dimethylaminophenyl)-2-(4-methoxybenzoyl)-6-methylthieno[2,3-b]-pyridine-5-carboxylic acid ethylester] | > 2000 mg/kg | 35 ± 3 µM |  | inhibition of MDR transport proteins (P-gp, MRP1, BCRP1), summary in words (P-glycoprotein (P-gp)): selectively inhibit P-gp and BCRP1
COCCOC(=O)c1c(C)nc2sc(C(=O)c3cccc(OC)c3)c(N)c2c1-c1cc(OC)c(OC)c(OC)c1 [Compound 33, 3-Amino-2-(3-methoxybenzoyl)-6-methyl-4-(3,4,5-trimethoxyphenyl)thieno[2,3-b]-pyridine-5-carboxylic acid 2-methoxyethyl ester] | > 2000 mg/kg | 6.2 ± 0.7 µM |  | inhibition of MDR transport proteins (P-gp, MRP1, BCRP1), summary in words (P-glycoprotein (P-gp)): selectively inhibit P-gp and BCRP1
COCCOC(=O)c1c(C)nc2sc(C(=O)c3ccc(OC)cc3OC)c(N)c2c1-c1cc(OC)c(OC)c(OC)c1 [Compound 35, 3-Amino-2-(2,4-dimethoxybenzoyl)-6-methyl-4-(3,4,5-trimethoxyphenyl)-thieno[2,3-b]pyridine-5-carboxylic acid 2-methoxyethyl ester] | > 2000 mg/kg | 9 ± 1 µM | more than ten times lower | 
CCOC(=O)c1c(-c2cc(OC)c(OC)c(OC)c2)nc2sc(C(=O)c3ccc(OC)cc3)c(N)c2c1-c1cc(OC)c(OC)c(OC)c1 [Compound 39, 3-Amino-4,6-bis-(3,4,5-trimethoxyphenyl)-2-(4-methoxybenzoyl)thieno[2,3-b]-pyridine-5-carboxylic acid ethyl ester] | > 2000 mg/kg |  |  | Ca^2+ A7R5, IC50 [3]: No effect
CCOC(=O)c1c(-c2cc(OC)c(OC)c(OC)c2)nc2sc(C(=O)c3cc(OC)c(OC)c(OC)c3)c(N)c2c1-c1cc(OC)c(OC)c(OC)c1 [Compound 40, 3-Amino-4,6-bis-(3,4,5-trimethoxyphenyl)-2-(3,4,5-trimethoxybenzoyl)-thieno[2,3-b]pyridine-5-carboxylic acid ethyl ester] | > 2000 mg/kg |  |  | Ca^2+ A7R5, IC50 [3]: No effect
COC(=O)c1c(C)nc2sc(C(=O)c3ccc4ccccc4c3)c(N)c2c1-c1cc(OC)c(OC)c(OC)c1 [Compound 41, 3-Amino-6-methyl-2-(naphthalene-2-carbonyl)-4-(3,4,5-trimethoxyphenyl)-thieno[2,3-b]pyridine-5-carboxylic acid methyl ester] | > 2000 mg/kg | 18 ± 1.4 µM |  | MDR, EC50, MRP1 (MRP1): No effect; EC50 (P-glycoprotein (P-gp)): 10.5 ± 0.7 µM; EC50 (BCRP1): 0.8 ± 0.2 µM
CCOC(=O)c1c(C)nc2sc(C(=O)c3ccc(OC)cc3)c(N)c2c1-c1ccc2c(c1)OCO2 [Compound 42, 3-Amino-4-(benzo[1,3]dioxol-5-yl)-2-(4-methoxybenzoyl)-6-methylthieno[2,3-b]-pyridine-5-carboxylic acid ethyl ester] | 2010 mg/kg | 18 ± 1 µM |  | EC50 (MRP1): 24.8 ± 1.2 µM; EC50 (P-glycoprotein (P-gp)): 20.4 ± 0.1 µM; EC50 (BCRP1): 2.3 ± 0.4 µM
CCOC(=O)c1c(C)nc2sc(C(=O)c3ccc(OC)cc3)c(N)c2c1-c1ccco1 [Compound 43, 3-Amino-4-(furan-2-yl)-2-(4-methoxybenzoyl)-6-methylthieno[2,3-b]pyridine-5-carboxylic acid ethyl ester] |  |  |  | MDR, EC50, MRP1 (MRP1): No effect; MDR, EC50, P-gp (P-glycoprotein (P-gp)): No effect; MDR, EC50, BCRP1 (BCRP1): No effect
COc1cc(-c2cc(-c3cc(OC)c(OC)c(OC)c3)c3c(N)c(C(=O)c4ccc(Cl)cc4)sc3n2)cc(OC)c1OC [Compound 47, 3-Amino-4,6-bis-(3,4,5-trimethoxyphenyl)-2-(4-chlorobenzoyl)thieno[2,3-b]-pyridine] | > 2000 mg/kg |  |  | MDR, EC50, MRP1 (MRP1): No effect; EC50 (P-glycoprotein (P-gp)): 31.4 ± 0.8 µM; EC50 (BCRP1): 14.5 ± 3.5 µM
COc1ccc(C(=O)c2sc3nc(-c4cc(OC)c(OC)c(OC)c4)cc(-c4cc(OC)c(OC)c(OC)c4)c3c2N)cc1 [Compound 48, 3-Amino-4,6-bis-(3,4,5-trimethoxyphenyl)-2-(4-methoxybenzoyl)thieno[2,3-b]-pyridine] | 3080 mg/kg |  |  | MDR, EC50, MRP1 (MRP1): No effect; EC50 (P-glycoprotein (P-gp)): 32.5 ± 2.1 µM; MDR, EC50, BCRP1 (BCRP1): No effect; Ca^2+ A7R5, IC50 [3]: No effect
CN(C)C(=O)CCSC(SCCC(=O)O)c1cccc(/C=C/c2ccc3ccc(Cl)cc3n2)c1 (stereo not shown) [MK-571, reference compound] | 752 mg/kg |  |  | MDR, EC50, P-gp (P-glycoprotein (P-gp)): No effect; Ca^2+ A7R5, IC50 [3]: No effect
